Reference: ChEMBL document CHEMBL1649267, “Molecular epidemiology and mechanisms of carbapenem resistance in Pseudomonas aeruginosa” (2009)
Converted amounts (≈) assume the structure as drawn.

Key:
Type in all cases: functional
[1] = test system: Pseudomonas aeruginosa; details: isolate Paebeta-24
[2] = test system: Pseudomonas aeruginosa; details: isolate Paebeta-27
[3] = test system: Pseudomonas aeruginosa; details: isolate Paebeta-18
[4] = test system: Pseudomonas aeruginosa; details: isolate Paebeta-15
[5] = test system: Pseudomonas aeruginosa; details: isolate Paebeta-03

| Structure (SMILES) | MIC [1] [µg/mL] | MIC [2] [µg/mL] | MIC [3] [µg/mL] | MIC [4] [µg/mL] | MIC [5] [µg/mL] |
| --- | --- | --- | --- | --- | --- |
| CO/N=C(\C(=O)N[C@@H]1C(=O)N2C(C(=O)[O-])=C(C[N+]3(C)CCCC3)CS[C@H]12)c1csc(N)n1 | 64 (≈ 133 µM) | 64 (≈ 133 µM) | 128 (≈ 266 µM) | 128 (≈ 266 µM) | 64 (≈ 133 µM) |
| C[C@H]1[C@H](NC(=O)/C(=N\OC(C)(C)C(=O)O)c2csc(N)n2)C(=O)N1S(=O)(=O)O [AZTREONAM] |  |  | 128 (≈ 294 µM) |  |  |
